From ChEMBL document CHEMBL4118187, “In vitro activity of salicylamide derivatives against vancomycin-resistant enterococci” (Bioorg Med Chem Lett, 2018)
Converted amounts (≈) assume the structure as drawn. The source made the active and inactive calls. No cut-off for these calls is given here.

How the values were obtained:
[1] = system: Enterococcus faecalis; test: Antibacterial activity against vancomycin-susceptible Enterococcus faecalis ATCC 29212 after 24 hrs; type: functional; conditions: ATCC 29212, 24 h
[2] = system: Enterococcus faecalis; test: Antibacterial activity against vancomycin-resistant Enterococcus faecalis 342B after 24 hrs; type: functional
[3] = system: Enterococcus faecalis; test: Antibacterial activity against vancomycin-resistant Enterococcus faecalis 368 after 24 hrs; type: functional; conditions: Enterococcus faecalis, 368, 24 h
[4] = system: Enterococcus faecalis; test: Antibacterial activity against vancomycin-resistant Enterococcus faecalis 725B after 24 hrs; type: functional
[5] = system: Enterococcus faecalis; test: Antibacterial activity against vancomycin-resistant Enterococcus faecalis 725B in presence of ciprofloxacin after 18 hrs by checkerboard assay; type: functional
[6] = system: Enterococcus faecalis; test: Antibacterial activity against vancomycin-resistant Enterococcus faecalis 342B in presence of tetracycline after 18 hrs by checkerboard assay; type: functional
[7] = system: Enterococcus faecalis; test: Antibacterial activity against vancomycin-resistant Enterococcus faecalis 368 in presence of tetracycline after 18 hrs by checkerboard assay; type: functional
[8] = system: Enterococcus faecalis; test: Antibacterial activity against vancomycin-resistant Enterococcus faecalis 368 assessed as compound concentration causing synergistic effect after 18 hrs in presence of vancomycin by checkerboard assay; type: functional
[9] = system: Enterococcus faecalis; test: Antibacterial activity against vancomycin-resistant Enterococcus faecalis 725B assessed as compound concentration causing additive effect after 18 hrs in presence of ciprofloxacin by checkerboard assay; type: functional
[10] = system: Enterococcus faecalis; test: Antibacterial activity against vancomycin-resistant Enterococcus faecalis 368 assessed as compound concentration causing additive effect after 18 hrs in presence of tetracycline after 18 hrs by checkerboard assay; type: functional
[11] = system: Enterococcus faecalis; test: Antibacterial activity against vancomycin-resistant Enterococcus faecalis 342B assessed as compound concentration causing additive effect after 18 hrs in presence of vancomycin by checkerboard assay; type: functional
[12] = system: Enterococcus faecalis; test: Antibacterial activity against vancomycin-resistant Enterococcus faecalis 368 assessed as compound concentration causing additive effect after 18 hrs in presence of vancomycin after 18 hrs by checkerboard assay; type: functional
[13] = system: Enterococcus faecalis; test: Antibacterial activity against vancomycin-resistant Enterococcus faecalis 725B in presence of tetracycline after 18 hrs by checkerboard assay; type: functional
[14] = system: Enterococcus faecalis; test: Antibacterial activity against vancomycin-resistant Enterococcus faecalis 342B in presence of vancomycin after 18 hrs by checkerboard assay; type: functional
[15] = system: Enterococcus faecalis; test: Antibacterial activity against vancomycin-resistant Enterococcus faecalis 368 in presence of vancomycin after 18 hrs by checkerboard assay; type: functional
[16] = system: Enterococcus faecalis; test: Antibacterial activity against vancomycin-resistant Enterococcus faecalis 725B in presence of vancomycin after 18 hrs by checkerboard assay; type: functional
[17] = system: Enterococcus faecalis; test: Antibacterial activity against vancomycin-resistant Enterococcus faecalis 368 assessed as vancomycin concentration causing synergistic effect after 18 hrs by checkerboard assay; type: functional
[18] = system: Enterococcus faecalis; test: Antibacterial activity against vancomycin-resistant Enterococcus faecalis 725B assessed as ciprofloxacin concentration causing additive effect after 18 hrs by checkerboard assay; type: functional
[19] = system: Enterococcus faecalis; test: Antibacterial activity against vancomycin-resistant Enterococcus faecalis 368 assessed as tetracycline concentration causing additive effect after 18 hrs after 18 hrs by checkerboard assay; type: functional
[20] = system: Enterococcus faecalis; test: Antibacterial activity against vancomycin-resistant Enterococcus faecalis 342B assessed as vancomycin concentration causing additive effect after 18 hrs by checkerboard assay; type: functional
[21] = system: Enterococcus faecalis; test: Antibacterial activity against vancomycin-resistant Enterococcus faecalis 368 assessed as vancomycin concentration causing additive effect after 18 hrs after 18 hrs by checkerboard assay; type: functional
[22] = Cytotoxicity against human THP1 cells after 24 hrs by LDH release assay; type: cell-based; conditions: THP-1 cells, read-out: LD50
[23] = Selectivity index, ratio of LD50 for human THP1 cells to MIC for vancomycin-resistant Enterococcus faecalis 342B; type: toxicity; conditions: THP-1 cells, read-out: Selectivity Index
[24] = system: Enterococcus faecalis; test: Antibacterial activity against vancomycin-resistant Enterococcus faecalis 342B assessed as compound concentration causing additive effect after 18 hrs in presence of tetracycline by checkerboard assay; type: functional
[25] = system: Enterococcus faecalis; test: Bacteriostatic activity against vancomycin-resistant Enterococcus faecalis 342B up to 24 hrs by time kill assay; type: functional, organism-based
[26] = system: Enterococcus faecalis; test: Bacteriostatic activity against vancomycin-resistant Enterococcus faecalis 725B up to 24 hrs by time kill assay; type: functional, organism-based
[27] = system: Enterococcus faecalis; test: Antibacterial activity against vancomycin-resistant Enterococcus faecalis 342B assessed as tetracycline concentration causing additive effect after 18 hrs by checkerboard assay; type: functional

Structure (SMILES)	MBC [1] [µM]	MIC [1] [µM]	MBC [2] [µM]	MIC [2] [µM]	MBC [3] [µM]	MIC [3] [µM]	MBC [4] [µM]	MIC [4] [µM]	also measured
CC(C)[C@H](NC(=O)c1ccc(Cl)cc1O)C(=O)Nc1ccc(Br)cc1	> 601	> 601	> 601	> 601	> 601	> 601	> 601	> 601	
CC(C)[C@H](NC(=O)c1cc(Cl)ccc1O)C(=O)Nc1ccc(C(F)(F)F)cc1	19.3 (≈ 8 µg/mL)	19.3 (≈ 8 µg/mL)	> 617	> 617	> 617	> 617	> 617	> 617	
CC(C)[C@H](NC(=O)OCc1ccccc1)C(=O)Oc1ccc(Cl)cc1C(=O)Nc1ccc([N+](=O)[O-])cc1	> 486	> 486	> 486	> 486	> 486	> 486	> 486	> 486	
O=C(Nc1ccc(C(F)(F)F)cc1)c1cc(Cl)ccc1O	6.34 (≈ 2 µg/mL)	0.199 (≈ 0.0628 µg/mL)	25.3 (≈ 8 µg/mL)	0.396 (≈ 0.125 µg/mL)	> 810	3.16 (≈ 0.998 µg/mL)	25.3 (≈ 8 µg/mL)	0.792 (≈ 0.25 µg/mL)	FIC [5]: 0.532 - 1.125; FIC [6]: 1.008 - 1.5; FIC [7]: 0.625 - 1.25; Activity [8]: 0.125 µg/mL; Activity [9]: 0.125 µg/mL; Activity [10]: 0.25 µg/mL; Activity [11]: 0.5 µg/mL; Activity [12]: 0.25 µg/mL; FIC [13]: 1.032 - 1.5; FIC [14]: 0.75 - 1.25; FIC [15]: 0.375 - 1.064; FIC [16]: 1 - 1.25; Activity [17]: 128 µg/mL; Activity [18]: 32 µg/mL; Activity [19]: 8 µg/mL; Activity [20]: 256 µg/mL; Activity [21]: 32 µg/mL
O=C(Nc1ccccc1)c1cc(Cl)ccc1O	1.01 (≈ 0.25 µg/mL)	0.5 (≈ 0.124 µg/mL)	> 1030	64.6 (≈ 16 µg/mL)	1030 (≈ 256 µg/mL)	129 (≈ 32 µg/mL)	516 (≈ 128 µg/mL)	129 (≈ 32 µg/mL)	CC50 at 24 h [22]: > 40 µM
O=C(Nc1ccc(Cl)c(Cl)c1)c1ccc(Cl)cc1O	1.58 (≈ 0.5 µg/mL)	0.395 (≈ 0.125 µg/mL)	25.3 (≈ 8 µg/mL)	0.199 (≈ 0.063 µg/mL)	202 (≈ 63.9 µg/mL)	0.79 (≈ 0.25 µg/mL)	25.3 (≈ 8 µg/mL)	0.199 (≈ 0.063 µg/mL)	FIC [5]: 0.756 - 1.25; FIC [6]: 1.016 - 1.508; FIC [7]: 1.016 - 1.504; Activity [9]: 0.032 µg/mL; Activity [11]: 0.032 µg/mL; Activity [12]: 0.25 µg/mL; CC50 at 24 h [22]: 25.6 µM; selectivity ratio [23]: 128; FIC [13]: 1.016 - 1.504; FIC [14]: 0.629 - 1.128; FIC [15]: 1 - 1.25; FIC [16]: 1.031 - 2.234; Activity [18]: 32 µg/mL; Activity [20]: 256 µg/mL; Activity [21]: 256 µg/mL
CC(C)[C@H](NC(=O)OCc1ccccc1)C(=O)Oc1ccc([N+](=O)[O-])cc1C(=O)Nc1ccc(Cl)cc1	> 466	> 466	> 466	> 466	> 466	> 466	> 466	> 466	
CN[C@H](CC(C)C)C(=O)N[C@H]1C(=O)N[C@@H](CC(N)=O)C(=O)N[C@H]2C(=O)N[C@H]3C(=O)N[C@H](C(=O)N[C@H](C(=O)O)c4cc(O)cc(O)c4-c4cc3ccc4O)[C@H](O)c3ccc(c(Cl)c3)Oc3cc2cc(c3O[C@@H]2O[C@H](CO)[C@@H](O)[C@H](O)[C@H]2O[C@H]2C[C@](C)(N)[C@H](O)[C@H](C)O2)Oc2ccc(cc2Cl)[C@H]1O [VANCOMYCIN]				353 (≈ 512 µg/mL)		353 (≈ 512 µg/mL)		706 (≈ 1020 µg/mL)	
COc1ccc(NC(=O)c2cc(Cl)ccc2OC(=O)[C@@H](NC(=O)OCc2ccccc2)C(C)C)cc1	> 499	> 499	> 499	> 499	> 499	> 499	> 499	> 499	
O=C(Nc1ccc(Cl)cc1)c1cc([N+](=O)[O-])ccc1O	> 874	> 874	> 874	> 874	> 874	> 874	> 874	> 874	CC50 at 24 h [22]: > 40 µM
O=C(Nc1ccc([N+](=O)[O-])cc1)c1cc(Cl)ccc1O	6.83 (≈ 2 µg/mL)	0.85 (≈ 0.249 µg/mL)	6.83 (≈ 2 µg/mL)	1.71 (≈ 0.5 µg/mL)	> 874	13.7 (≈ 4 µg/mL)	6.83 (≈ 2 µg/mL)	3.42 (≈ 1 µg/mL)	Activity [24]: 0.5 µg/mL; FIC [5]: 1 - 1.25; FIC [6]: 0.75 - 1.25; FIC [7]: 0.75 - 1.25; Activity [9]: 0.008 µg/mL; Activity [10]: 1 µg/mL; Activity [11]: 0.063 µg/mL; Activity [12]: 0.063 µg/mL; Activity [25]: Active; Activity [26]: Active; FIC [13]: 1.032 - 2.125; FIC [14]: 1 - 2.25; FIC [15]: 0.625 - 1.25; FIC [16]: 1.063 - 1.5; Activity [18]: 64 µg/mL; Activity [27]: 16 µg/mL; Activity [19]: 16 µg/mL; Activity [20]: 64 µg/mL; Activity [21]: 512 µg/mL
CC(C)[C@H](NC(=O)OCc1ccccc1)C(=O)Oc1ccc(Cl)cc1C(=O)Nc1ccc(C(F)(F)F)cc1	> 466	> 466	> 466	> 466	> 466	> 466	> 466	> 466	
CC(C)[C@H](NC(=O)OCc1ccccc1)C(=O)Oc1cc(Cl)ccc1C(=O)Nc1ccc(Cl)c(Cl)c1	> 465	> 465	> 465	> 465	> 465	> 465	> 465	> 465	
CC1(C)S[C@@H]2[C@H](NC(=O)[C@H](N)c3ccccc3)C(=O)N2[C@H]1C(=O)O [AMPICILLIN]							5.72 (≈ 2 µg/mL)	5.72 (≈ 2 µg/mL)	
CN(C)[C@@H]1C(O)=C(C(N)=O)C(=O)[C@@]2(O)C(O)=C3C(=O)c4c(O)cccc4[C@@](C)(O)[C@H]3C[C@@H]12 [TETRACYCLINE]				144 (≈ 64 µg/mL)		144 (≈ 64 µg/mL)		144 (≈ 64 µg/mL)	
Cc1ccc(NC(=O)[C@@H](NC(=O)c2cc(Cl)ccc2O)C(C)C)cc1	> 709	> 709	> 709	> 709	> 709	> 709	> 709	> 709	
